Drawing on patent US4806564A, “Antihypercholesterolemic beta-lactones” (Merck & Co., Inc., priority 1987, dated 1989), this text covers IC50 for 13 compounds.

The structures appear in SMILES notation. pIC50: −log10 of the molar value.

In this experiment the target is T1, HMG-CoA synthase (Rattus norvegicus, UniProt P17425).
T1 construct: The HMG-CoA synthase was eluted from the column with 0.1 M phosphate buffer (pH 7.2); from tissue; host or cells: liver of male Charles River CD rats
T1 sequence (P17425 1-520): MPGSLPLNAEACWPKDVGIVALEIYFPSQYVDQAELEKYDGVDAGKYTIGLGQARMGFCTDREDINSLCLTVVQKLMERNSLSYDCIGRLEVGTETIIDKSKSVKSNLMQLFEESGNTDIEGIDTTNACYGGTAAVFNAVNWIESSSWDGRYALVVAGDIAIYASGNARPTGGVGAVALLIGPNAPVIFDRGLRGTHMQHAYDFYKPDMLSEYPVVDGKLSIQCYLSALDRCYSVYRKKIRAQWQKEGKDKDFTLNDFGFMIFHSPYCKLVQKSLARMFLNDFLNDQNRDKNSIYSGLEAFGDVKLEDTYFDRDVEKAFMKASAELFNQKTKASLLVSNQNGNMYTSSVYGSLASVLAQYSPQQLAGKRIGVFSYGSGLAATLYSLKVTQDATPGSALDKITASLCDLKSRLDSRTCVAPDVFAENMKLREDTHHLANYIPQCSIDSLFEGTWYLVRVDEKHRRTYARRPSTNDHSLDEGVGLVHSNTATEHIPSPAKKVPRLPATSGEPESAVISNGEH
Kind of experiment: HMG-CoA Synthase Inhibition Assay. Format: biochemical. As to conditions: in vitro; HMG-CoA synthase purified from rat liver; 5 min preincubation with test compound at 30°, then 10 min with acetoacetyl-CoA and [14C]-acetyl-CoA. The protocol: The intrinsic HMG-CoA synthase inhibition activity of the compounds of this invention is measured by the standard in vitro protocol described below:
The livers from male Charles River CD rats (225-350 g) were homogenized in 0.25 M sucrose which was adjusted with phenylmethylsulfonylfluoride (PMSF) and N-p-tosyl-1-lysine chloromethyl ketone (TLCK) so that the final concentration of each was […], respectively. The homogenate was centrifuged at 15,000× g for 20 minutes, the supernatant filtered through a fine nylon screen to remove most of the fat layer and recentrifuged at 100,000× g for 1 hour. This supernatant was removed and 1 M potassium phosphate, dithiothreitol (DTT) and ethylene glycol-bis(β-aminoethyl ether)-N,N,N',N'-tetracetic acid (EGTA) added to give a final concentration of 0.1 M (pH 7.2), 0.5 mM and 0.1 mM, respectively. Solid ammonium sulfate was added to 50% saturation to the protein solution, it was centrifuged at 15,000× g and the supernatant discarded. This precipitated protein could be stored at -70° C. for at least one month with very little loss of activity. The ammonium sulfate precipitate was dissolved in an minimal mount of 0.06 M potassium phosphate buffer (pH 7.2) containing 0.5 mM dithiothreitol and 0.1 mM EGTA (referred to as 0.06 M phosphate buffer) and dialyzed overnight against 2 liters of the same buffer to remove the ammonium sulfate and to inactivate HMG-CoA lyase [Clinkenbeard, et al., J. Biol. Chem. 250, 3108-3116(1975)].
The dialyzed extract was added to a column of DEAE-52 (Whatman) which had been equilibrated with 0.06 M phosphate buffer (10 mg of protein to 1 ml bed volume of the resin). The DEAE-cellulose was eluted with 0.06 M phosphate buffer until the optical density at 280 nm was essentially zero. This fraction contained the β-ketoacetyl-CoA thiolase activity. The HMG-CoA synthase was eluted from the column with 0.1 M phosphate buffer (pH 7.2) containing 0.5 mM DTT and 0.1 mM EGTA, and was virtually free of all thiolase activity. The protein was precipitated by the addition of ammonium sulfate to give 50% saturation. This solution was stirred for 10 minutes at 4° C. and the precipitate collected by centrifugation at 15,000 rpm for 10 minutes. The supernatant was discarded and the precipitate dissolved in a minimum of 0.06 M phosphate buffer, pH 7.2 (about 10 ml) and the enzyme stored at -80° C.
Enzyme protein (ca. 24 mg) was added to a solution containing […] (pH 8.0), 11.7 μM MgCl2, 1.17 μM Ethylenediaminetetraacetic acid (EDTA), 0.58 μM dithiothreitol, and the indicated concentrations of the test compound (added as a 2 mg/ml solution in dimethylsulfoxide). The incubation took place in a volume of 0.085 ml at 30° in a shaking water bath. After 5 minutes, […] of a solution containing acetoacetyl-CoA and 0.1 μCi of 1-[^14 C]-acetyl-CoA was added to give a final concentrations of 0.1 and 0.4 μM, respectively. The incubation was continued for 10 more minutes and the reaction stopped by the addition of […] of the assay mixture to 0.2 ml of 6N HCl in a glass scintillation vial. The vial was heated for 1 hour at 120° after which time 0.2 ml more of 6N HCl was again added to each vial and the heating continued for another hour. Following this, 1.0 ml of 0.9% saline was added to each vial and finally 10 ml of scintillation liquid. Radioactivity was determined in a Packard Tri-Carb liquid scintillation counter.
Percent inhibition is calculated by the formula: [formula]
IC50 values were determined by plotting the log of the concentration of the test compound verses the percentage inhibition and fitting a straight line to the resulting data by using the least squares method.
In turn, `C[C@H]1C(=O)O[C@@H]1CCCCCCCCCc1ccccc1` (relative stereo) [(CH2)9 Ph, E-3-methyl-4-(9-phenylnonyl)-2-oxetanone] had a pIC50 of 5.92.
Next, `CC(=O)CC(C)CCCCC1OC(=O)C1CO` (stereo not shown) [8-(3-hydroxymethyl-4-oxo-2-oxetanyl)-4-methyl-2-octanone]: 5.80; `COC(=O)C=C(C)C1OC1(C)CC(C)CCCCC1OC(=O)C1CO` (stereo not shown) [methyl 11-(3-hydroxymethyl-4-oxo-2-oxetanyl)-4,5-oxiranyl-3,5,7-trimethyl-2-undecenoate]: 7.10.
Next, `COCC1C(=O)OC1CCCCC(C)CC(C)(O)C(O)C(C)=CC(=O)OC` (stereo not shown) [methyl 11-(3-methoxymethyl-4-oxo-2-oxetanyl)-4,5-dihydroxy-3,5,7-trimethyl-2-undecenoate]: 5.72; `COCC1C(=O)OC1CCCCC(C)CC(C)OC` (stereo not shown) [8-(3-methoxymethyl-4-oxo-2-oxetanyl)-4-methyl-2-methoxyoctane]: 5.26.
Under `COCC1C(=O)OC1CCCCC(C)CC(C)=O` (stereo not shown) [8-(3-methoxymethyl-4-oxo-2-oxetanyl)-4-methyl-2-octanone] stands 5.77; under `CCCCCCCCCC[C@@H]1OC(=O)[C@H]1C` (relative stereo) [(CH2)9CH3, E-3-Methyl-4-decyl-2-oxetanone], 6.60; under `COC(=O)C=C(C)C(O)C(C)(O)CC(C)CCCCC1OC(=O)C1CO` (stereo not shown) [methyl 11-(3-hydroxymethyl-4-oxo-2-oxetanyl)-4,5-dihydroxy-3,5,7-trimethyl-2-undecenoate], 5.96.
In turn, `CC(=CC(=O)O)C1OC1(C)CC(C)CCCCC1OC(=O)C1CO` (stereo not shown) [11-(3-hydroxymethyl-4-oxo-2-oxetanyl)-4,5-oxiranyl-3,5,7-trimethyl-2-undecenoic acid] had a negative logarithm of the IC50 (pIC50) of 7.00.
In turn, `C[C@H]1C(=O)O[C@@H]1CCCCCCc1ccccc1` (relative stereo) [(CH2)6 Ph, E-3-Methyl-4-(6-phenylhexyl)-2-oxetanone] gave a pIC50 of 5.82. Compared with the last compound, the pIC50 is 1.18 log units lower.
Under `C[C@H]1C(=O)O[C@@H]1CCCCCc1ccccc1` (relative stereo) [(CH2)5Ph, E-3-Methyl-4-(5-phenylpentyl)-2-oxetanone] stands 5.85; under `C=CCCCCCCCC[C@@H]1OC(=O)[C@H]1C` (relative stereo) [(CH2)8 CHCH2, E-3-Methyl-4-(9-decenyl)-2-oxetanone], 5.80; under `CC(CC(C)CCCCC1OC(=O)C1CO)=NNc1ccc(Br)cc1` (stereo not shown) [8-(3-hydroxymethyl-4-oxo-2-oxetanyl)-4-methyl-2-(4-bromophenylhydrazono)-octane], 6.10.

By pIC50 is commonly meant the negative decadic logarithm of the IC50, by convention in mol/L. Read a high pIC50 as a low IC50.
